From US9458480B2, “Microorganisms and methods for the biosynthesis of adipate, hexamethylenediamine and 6-aminocaproic acid” (GENOMATICA, INC., priority 2009, dated 2016)

B1: pcaF from Pseudomonas aeruginosa PAO1: β-ketothiolase pcaF from Pseudomonas aeruginosa PAO1 (protein, UniProt Q9I6R0 1-401, looked up)
Beta-ketoadipyl-CoA thiolase: MSREVFICDAVRTPIGRFGGSLSAVRADDLAAVPLKALVERNPGVDWSALDEVFLGCANQAGEDNRNVARMALLLAGLPESVPGVTLNRLCASGMDAIGTAFRAIACGEMELAIAGGVESMSRAPYVMGKADSAFGRGQKIEDTTIGWRFVNPLMKEQYGIDPMPQTADNVADDYRVSRADQDAFALRSQQRAGRAQEAGFFAEEIVPVTIRGRKGDTLVEHDEHPRPDTTLEALARLKPVNGPEKTVTAGNASGVNDGAAALVLASAEAVEKHGLTPRARVLGMASAGVAPRIMGIGPVPAVRKLLRRLDLAIDAFDVIELNEAFASQGLACLRELGVADDSEKVNPNGGAIALGHPLGMSGARLVLTALHQLEKSGGRRGLATMCVGVGQGLALAIERV
B2: paaJ: β-ketothiolase paaJ from Escherichia coli, His-tagged, purified (protein, UniProt P0C7L2 1-401, looked up)
3-oxoadipyl-CoA/3-oxo-5,6-dehy …: MREAFICDGIRTPIGRYGGALSSVRADDLAAIPLRELLVRNPRLDAECIDDVILGCANQAGEDNRNVARMATLLAGLPQSVSGTTINRLCGSGLDALGFAARAIKAGDGDLLIAGGVESMSRAPFVMGKAASAFSRQAEMFDTTIGWRFVNPLMAQQFGTDSMPETAENVAELLKISREDQDSFALRSQQRTAKAQSSGILAEEIVPVVLKNKKGVVTEIQHDEHLRPETTLEQLRGLKAPFRANGVITAGNASGVNDGAAALIIASEQMAAAQGLTPRARIVAMATAGVEPRLMGLGPVPATRRVLERAGLSIHDMDVIELNEAFAAQALGVLRELGLPDDAPHVNPNGGAIALGHPLGMSGARLALAASHELHRRNGRYALCTMCIGVGQGIAMILERV
modifications: His-tag
notes: β-ketothiolase paaJ from Escherichia coli, His-tagged, purified
B3: pcaF from Pseudomonas putida KT2440: β-ketothiolase pcaF from Pseudomonas putida KT2440 (protein, UniProt Q51956 1-400, looked up)
Beta-ketoadipyl-CoA thiolase: MRDVFICDAIRTPIGRFGGALAGVRADDLAAVPLKALIEPNPAVQWDQVDEVFFGCANQAGEDNRNVARMALLLAGLPESIPGVTLNRLCASGMDAIGTAFRAIASGEMELAIAGGVESMSRAPFVMGKAESGYSRNMKLEDTTIGWRFINPLMKSQYGVDSMPETADNVADDYQVSRADQDAFALRSQQKAAAAQAAGFFAEEIVPVRIAHKKGETIVERDEHLRPETTLEALTKLKPVNGPDKTVTAGNASGVNDGAAALILASAEAVKKHGLTPRARVLGMASGGVAPRVMGIGPVPAVRKLTERLGVAVSDFDVIELNEAFASQGLAVLRELGVADDAPQVNPNGGAIALGHPLGMSGARLVLTALHQLEKSGGRKGLATMCVGVGQGLALAIERV

How the values were obtained:
E. coli [1] = format: cell-based, Escherichia coli
Procedure: FIG. 18, panels A and B, show the growth in various concentrations of 6-ACA with and without glycine betaine. Panel A. OD600 measurements of medium inoculated with midlog cultures of E. coli with various concentrations of 6-ACA with (right bars) and without (left bars) 2 mM glycine betaine. Panel B. Photograph showing the growth of same cultures in the anaerobic bottles.
At high concentrations (>65 g/L) the osmolarity of 6-ACA is ˜0.5 M which may cause osmotic stress. To determine osmotic stress as the basis for 6-ACA growth inhibition, cultures were grown in various concentrations of 6-ACA with and without the osmoprotectant glycine betaine. […] Therefore much of the toxicity of 6-ACA is likely due to the osmotic stress. However, it should be noted that […] is similar to the amino acid lysine and could have a greater toxic effect in the cell cytoplasm vs. outside the cell.

[2] = target: Lysine decarboxylase (EC 4.1.1.18) (Escherichia coli, UniProt P0A9H3); settings: E. coli enzyme; cited from earlier work
Chain of Lysine decarboxylase (EC 4.1.1.18) (P0A9H3 whole entry): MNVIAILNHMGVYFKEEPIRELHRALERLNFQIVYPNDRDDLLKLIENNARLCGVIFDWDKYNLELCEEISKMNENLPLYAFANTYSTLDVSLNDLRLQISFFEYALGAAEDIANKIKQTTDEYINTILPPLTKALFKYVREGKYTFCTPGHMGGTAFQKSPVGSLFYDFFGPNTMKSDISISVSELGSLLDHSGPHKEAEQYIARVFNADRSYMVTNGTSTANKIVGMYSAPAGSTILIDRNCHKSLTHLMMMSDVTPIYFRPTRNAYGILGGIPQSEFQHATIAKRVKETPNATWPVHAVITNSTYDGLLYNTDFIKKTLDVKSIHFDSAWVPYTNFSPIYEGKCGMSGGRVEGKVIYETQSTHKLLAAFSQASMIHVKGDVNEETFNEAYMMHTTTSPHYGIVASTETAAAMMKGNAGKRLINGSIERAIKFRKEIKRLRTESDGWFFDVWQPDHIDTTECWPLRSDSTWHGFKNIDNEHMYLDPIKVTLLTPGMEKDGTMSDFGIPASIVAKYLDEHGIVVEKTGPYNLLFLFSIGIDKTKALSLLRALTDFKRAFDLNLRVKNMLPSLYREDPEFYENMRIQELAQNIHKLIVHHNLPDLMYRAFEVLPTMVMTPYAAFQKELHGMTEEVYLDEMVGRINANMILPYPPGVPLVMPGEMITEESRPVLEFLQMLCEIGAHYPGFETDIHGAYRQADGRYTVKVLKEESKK

E. coli [3] = assay: Tolerance of E. coli cells resuspended in medium with various concentrations of 6-ACA (OD after overnight growth); format: cell-based, Escherichia coli; settings: cells grown anaerobically to mid-log (0.3 OD) and early stationary phase (0.6 OD), resuspended in fresh M9-glucose medium, capped microfuge tubes
Procedure: Midlog (OD600=0.3, lower dashed line) or early stationary (OD600=0.6, upper dashed line) cells were spun down and resuspended in fresh M9-Glucose medium with various concentrations of 6-ACA. After overnight growth, cultures were measured for growth by measuring OD600.
(§1) E. coli was assayed for tolerance, metabolic activity and growth during exposure to various concentrations of 6-aminocaproate (6-ACA). Aerobically, cultures were able to grow media with up to 10% 6-ACA, while anaerobic cultures could grow in media with approximately 6% 6-ACA (FIG. 15). Because the pathway for producing 6-ACA could require anaerobic conditions, all other further testing was performed under anaerobic conditions. To assay tolerance, cultures were grown anaerobically to mid-log(0.3 OD) and early stationary phase (0.6 OD), the cells were spun down and resuspended in medium containing various concentrations of 6-ACA. The cultures were grown in capped microfuge tubes, grown overnight and the ODs of the cultures were assayed (FIG. 16). Under these conditions, cultures were able to grow (double at least 1 time) in up to 10% 6-ACA. The additional tolerance could have been from the additional glucose from resuspending the cultures in fresh M9-glucose medium or from limited oxygen that was present in the capped microfuge tube. […]

E. coli [4] = assay: Ethanol production (metabolic activity) of E. coli cultures exposed to 6-ACA; format: cell-based, Escherichia coli; settings: resuspended cultures, overnight growth
Procedure: Midlog or early stationary cells were spun down and resuspended in fresh M9-Glucose medium with various concentrations of 6-ACA. After overnight growth, cultures were measured for growth by measuring OD600 and metabolic activity assayed by ethanol production.
as §1

E. coli [5] = assay: Growth of E. coli in media containing various concentrations of 6-ACA; format: cell-based, Escherichia coli
Procedure: E. coli was inoculated into media and grown in either aerobic (left and right bars) or anaerobic (middle bars) conditions. The cultures were grown for 48 hrs during the first trial and 30 hrs for a second trial under aerobic conditions (right bars).
as §1

[6] = In vitro thiolase reactions with purified His-tagged thiolases, LC/MS analysis; format: biochemical; settings: for Condensation of succinyl-CoA and acetyl-CoA into β-ketoadipyl-CoA: 0.5 μM purified thiolase, succinyl-CoA:acetyl-CoA 2:1, 30° C., 30 minutes, LC/MS; for Activities in the oxoadipyl-CoA forming direction: as summarised in Example XXVI
Procedure: Succinyl-CoA and acetyl-CoA were added to His-tagged, purified thiolases at a ratio of 2:1 (succinyl-CoA:acetyl-CoA). Reactions were analyzed by LC/MS and quantified by comparison to a standard for acetoacetyl-CoA or peak area determined for 3-oxoadipyl-CoA (β-ketoadipyl-CoA).
For example, the gene products encoded by pcaF in Pseudomonas strain B13 (Kaschabek et al., J. Bacteriol, 184(1): 207-15 (2002)), phaD in Pseudomonas putida U (Olivera et al., Proc Nall Acad Sci USA, 95(11), 6419-24 (1998)), paaE in Pseudomonas fluorescens ST (Di Gennaro et al., Arch Microbiol, 188(2), 117-25 (2007)), and paaJ from E. coli (Nogales et al., Microbiology, 153(Pt 2), 357-65 (2007)) catalyze the conversion of 3-oxoadipyl-CoA into succinyl-CoA and acetyl-CoA during the degradation of aromatic compounds such as phenylacetate or styrene.
The genes were expressed in E. coli and the proteins purified using Ni-NTA spin columns and quantified. To assay enzyme activity in vitro, a […] CoA:DTNB (Ellman's reagent or 5,5′-dithiobis-(2-nitrobenzoic acid)) mixture was prepared. The mixture consisted of 10 mM succinyl-CoA, 5 mM acetyl-CoA, 30 mM DTNB in 100 mM Tris buffer, pH 7.4. […] of the CoA:DTNB mixture was added to 0.5 μM purified thiolase enzyme in 100 mM Tris buffer, pH 7.8 in a final volume of 50 μL. The reaction was incubated at 30° C. for 30 minutes, then quenched with 2.5 μL 10% formic acid and samples frozen at −20° C. until ready for analysis by LC/MS. Because many thiolases can condense two acetyl-CoA molecules into acetoaceytl-CoA, production of acetoacetyl-CoA was examined. […] These were fadAx from Pseudomonas putida, thiA from Clostridium acetobutylicum and thiB also from Clostridium acetobutylicum. […] There was excellent specificity between the thiolases.

Row | Molecule | Inhibition of lysine decarboxylase [2] | Condensation of succinyl-CoA and acetyl-CoA into β-ketoadipyl-CoA [6] | Activities in the oxoadipyl-CoA forming direction [6] | further results
1 | NCCCCCC(=O)O [6-ACA, 6-aminocaproic acid] | competitive inhibitors |  |  | 6-ACA concentration in medium allowing anaerobic growth (E. coli [1]): 4-6%; 6-ACA concentration in which cultures were able to grow (double at least 1 time) (E. coli [3]): up to 10%; Ethanol production (metabolic activity) in the presence of 6-ACA (E. coli [4]): closely tracked with OD; 6-ACA concentration in media in which cultures were able to grow (E. coli [5]; aerobic): up to 10%; 6-ACA concentration in media in which cultures could grow (E. coli [5]; anaerobic): approximately 6%
2 | NC(CCCCC(=O)O)C(=O)O (stereo not drawn) [2-Aminopimelate] | competitive inhibitors |  |  | 
3 | B1 |  | demonstrated the desired activity | significant and selective activities | 
4 | B2 |  | demonstrated the desired activity | significant and selective activities | 
5 | B3 |  | demonstrated the desired activity |  | 
